Reference: patent US6797285B1, “Leaves of Cajanus Cajan(L.) Millsp and extract, formulation and uses thereof” (priority 1999, dated 2004)
Marks after values point to notes of the source that are not given here.

Assays:
threshold of pain = experiment: hot-plate test on mouse; assay type: in vivo, NIH female mice
Procedure: Adjusted the temperature of water bath box to 55° C.±1° C. I.C. Immersed one big beaker in the water bath and put mice into the beaker. Recorded the period from the time when animals were put into the beaker to that when animals licked feet due to pain, and defined the period as the threshold of pain of that mouse.
Screened out the mice whose threshold of pain were in the range of 5-30 seconds, and divided them randomly into 5 groups including control group, indometacin-treated group and three Shengmaichenggu capsule-treated groups (The dosage are shown in table 11). Administered medicaments to animals by gavage for continuous 7 days. Determined the threshold of pain at the time of 30 minutes and 60 minutes after the administration at day 7 respectively, and observed the changes in the threshold of pain after administration. Room temperature should be controlled in the range of 15-20° C.

[1] = test system: mouse pinnal inflammation caused by dimethylbenzene; experiment: mouse pinnal inflammation induced by dimethylbenzene; assay type: in vivo, NIH mice; conditions: 0.013 g/kg/day, gavage 7 days
Procedure: Divided the mice into 5 groups randomly with 8 mice each, i.e. control group, indometacin-treated group and three Shengmaichenggu capsule-treated groups (dosages are shown in table 12). The mice were administered medicaments in different concentration by gavage. […] Killed the mice after […] by decollation. Cut out the equal area at the same position from both ears of the mouse with perforator, and weighted with torsion balance. The swell degree is defined as the weight difference of subtracting the weight of the right ear from that of the left. Analyzed the data of swell degree of the control group and the treated groups statistically.

[2] = test system: mouse pain induced by acetic acid; experiment: writhing response on mouse (acetic acid); assay type: in vivo, NIH mice; conditions: 0.013 g/kg/day, gavage 7 days
Procedure: Divided the mice into 5 groups randomly, i.e. control group (0.2 ml/10 g distilled water), indometacin-treated group (0.013 g/kg) and three Shengmaichenggu capsule-treated groups (dosages are shown in table 10). The mice were administered by gavage for 7 days. […] Recorded the first time when the writhing response appeared caused by pain for each mouse, the number of the writhing response appeared in 10 minute and the analgesic percent.

[3] = test system: immune organs (thymus, spleen); experiment: immune organ coefficient of mouse, prednisone acetate immunosuppression; assay type: in vivo, NIH mice; conditions: Dosage/kg/day 0.04
Procedure: (§1) The mice were divided into 6 groups randomly, i.e. control group, modeled group, levamisole-treated group, and three Shengmaichenggu capsule-treated groups (dosages are shown in table 14). […] Administered distilled water to the control group by gavage in the same period. At the time of 30 minutes after administering on the day 20, injected […] into tail vein at a dosage of 0.01 ml/l10 g. At the 2th and 12th minute after injection, took 10 μl orbit blood and put into 3 ml 0.1% Na2CO3 solution and shook up. Detected optical density (OD) by colorimetric analysis in 722-grating photometer (λ=620). […] The animals were killed by dislocating cervical vertebra. The liver and spleen were weighted respectively. Determined the weight of immune organs of every mouse according to the immune organ weighting method. Calculated the immune organ index and made a statistical analysis for the result.

mice lymphocyte = experiment: cellular immunity test: transformation reaction of mice lymphocyte (PHA); assay type: in vivo, NIH mice; conditions: 0.04 g/kg/day
Procedure: The mice were divided into 6 groups randomly, i.e. control group, model group levamisole-treated group, and three Shengmaichenggu capsule-treated groups at different dosages (dosages are shown in table 17). Administered by gavage once a day for continuous 7 days. After the last administration, all the animals were immunized by injecting 5% suspension of chicken red blood cells to abdominal cavity at a dosage of 0.2 ml/one mouse. Then the animals were injected PHA to abdominal cavity at a dosage of 0.025 ml/10 g for continuous 3 days. All groups except control group were administered prednisone acetate at a dosage of […] body weight by gavage for continuous 7 days. At the time of 12 hours after last administration, the experiment was carried out according to the Experiment of the content of mouse hemolysin mentioned above in which chicken blood cells were used as immunogen.

monocytophagous function = monocytophagous function of mouse (china ink clearance), prednisone acetate immunosuppression; assay type: in vivo, NIH mice; conditions: 0.04 g/kg/day, gavage 20 days
Procedure: as §1

serum hemolysin = experiment: hemolysin content of mouse immunised by chicken blood cells; assay type: in vivo, NIH mice; conditions: 0.04 g/kg/day
Procedure: The grouping and administering scheme was the same as that of the above-mentioned Experiment of nonspecific immunological functions. At the first day of administration, injected 5% suspension of chicken red blood cells to abdominal cavity of mice at a dosage of 0.2 ml/one mouse. Seven days after immunization, took blood from eyeball and centrifuged. The serum was diluted 100 times with physiological saline. 1 ml of the diluted serum was mixed with 0.5 ml of 5% suspension of chicken red blood cells and 0.5 ml of 10% complement. After incubation in an incubator at 37° C. for 30 minutes, the reaction was terminated by putting the mixture into a 0° C. refrigerator.
The formulated test solution was centrifuged. Took the supernatant and detected optical density (OD) by colorimetric analysis in 722-grating photometer (λ=620). Set up a control group free of serum and took the supernatant of the centrifuged test solution of this group as the “0” basis for colorimetric assay. Took “OD” as the index for quantifying the serum hemolysin and analysed the data statistically.

tampon-induced granuloma = experiment: granuloma induced by tampon on rat; assay type: in vivo, SD rats; conditions: 25 mg/kg/day, gavage
Procedure: The rats were divided into 5 groups randomly with 12 rats each group, i.e. control group, prednisone acetate-treated group and three Shengmaichenggu capsule-treated groups. An incision was made aseptically along the dorsimeson of a rat anesthetized by pentobarbital sodium and a sterilized tampon was imbedded into the incision and sewed up. The treated groups were administered by gavage 3 days before surgery until the day 7 after surgery. At the 8th day after surgery, the rats were killed by decollation. Avulsed out the tampon-caused granuloma tissue and dried it at 60-90° C. in a oven for 1 hour. Then weighted and subtracted the initial weight of tampon to get the net weight of granuloma tissue. Compared the granuloma weight among these groups and analyzed the results statistically.

acute blood stasis model = experiment: hermorheology index of rat acute blood stasis model; assay type: in vivo, SD rats; conditions: 90 mg/kg/day, gavage 20 days
Procedure: The rats were divided into 6 groups randomly, i.e. normal control group, blood stasis model group, Tetramethylpyrazine phosphate-treated group and three Shengmaichegngu capsule-treated groups (the dosage were shown in table 9). The control group and the blood stasis model group were administered equal volume of distilled water by gavage. Every treated groups were administered liquor drug with different concentrations at a dosage of 2 ml/100 g weight/day, once daily at a fixed time for 20 days. When 24 hours after the last administration, animals except the normal control group were injected epinephrine hydrochloride hypodermically for two times (0.8 mg/kg) with an interval of 3 hours. The rats were immersed in water at 4±1° C. for 5 minutes at the time of 1.5 hour after the first injection of epinephrine hydrochloride, then the animals fast. In the next morning, eyeball blood was taken from anesthetized animals (injected pentobarbital sodium to abdominal cavity at a dosage of 30 mg/kg ). Hermorheology indexes were determined which include specific viscosity of whole blood, specific viscosity of plasma, erythrocyte sedimentation and hematokrit.

## COc1ccc2c(c1)c(CC(=O)O)c(C)n2C(=O)c1ccc(Cl)cc1 [Indometacin, indometacin]
Threshold of pain; 0.013 g/kg/day, day 7, 30 min
  Threshold of pain at different time after administration, 30 min: 28.07 ± 6.67 S
Threshold of pain; 0.013 g/kg/day, day 7, 60 min
  Threshold of pain at different time after administration, 60 min: 24.64 ± 6.49 S
Threshold of pain; baseline, group 0.013 g/kg/day
  Threshold of pain before administration: 18.93 ± 5.41 S
[1]
  Swell degree: 0.5500 ± 0.258 mg
[2]
  Analgesic percent: 75## %
  Number of writhing mice: 2##
  The First time when the writhing response appeared: 572.75 ± 182.13 s

## c1ccc([C@H]2CN3CCSC3=N2)cc1 [Levamisole, levamisole]
[3]
  Immune organ coefficient, Spleen: 52.82 ± 0.887 mg/kg
  Immune organ coefficient, Thymus: 1.501 ± 0.334 mg/kg
Mice lymphocyte
  Transformation rate of lymphocyte: 0.7370 ± 0.03234 %
  limphoblast: 0.4310 ± 0.05043 %
  transition state cells: 0.3050 ± 0.0495 %
Monocytophagous function
  Phagocytic activity α: 5.1964 ± 0.7761
  Phagocytic count K: 0.0273 ± 0.00852
Serum hemolysin
  OD (Optical density), hemolysin content: 0.7370 ± 0.1444

## CC(=O)OCC(=O)[C@@]1(O)CC[C@H]2[C@@H]3CCC4=CC(=O)C=C[C@]4(C)[C@H]3C(=O)C[C@@]21C [Prednisone acetate, prednisone acetate]
tampon-induced granuloma
  Net weight of granuloma: 33.45 ± 13.10 mg

## Cc1nc(C)c(C)nc1C.O=P(O)(O)O [Tetramethylpyrazine phosphate]
Acute blood stasis model
  Erythrocyte sedimentation: 1.80 ± 0.27
  Hematokrit: 43.55 ± 2.39
  Specific viscosity of plasma: 1.95 ± 0.08
  Specific viscosity of whole blood, High shearviscosity coefficient: 5.59 ± 0.40
  Specific viscosity of whole blood, Lower shearviscosity coefficient: 20.87 ± 2.63
